Reference: publication PMC6235670, “An mTOR Signaling Modulator Suppressed Heterotopic Ossification of Fibrodysplasia Ossificans Progressiva” (Stem Cell Reports, 2018)
Where two headings read alike, the source gives them in different places. Values belong to the compound of their own block, whether it stands above or below them.

Columns and labels:
ATDC5/FOP-ACVR1 cells [1] = assay: ALP assay (HTS and dose-response) in ATDC5/FOP-ACVR1; format: cell-based, mouse
Experimental: ATDC5/FOP-ACVR1 cells were plated in 96-well white plates (2,000 cells/well/40 μL, Corning) in DMEM/F-12 supplemented with 5% (v/v) FBS. Two hours after incubation at 37°C under 5% CO2, 10 μL of test compounds (final 1 μM) was added, and the assay plates were incubated at 37°C under 5% CO2. After 3 days of incubation, ALP activity was measured using an Amplite Colorimetric Alkaline Phosphatase Assay Kit (AAT Bioquest) according to the manufacturer's protocol.
(§1) Generation of ATDC5 stably expressing ACVR1. WT - or FOP-ACVR1 was inserted into doxycycline (Dox)- […]
(§2) (KW111/WT-ACVR1 or KW111/FOP-ACVR1). KW111/WT-ACVR1 or KW111/FOP-ACVR1 and PBaseII […]
FuGeneHD® (Promega) according to the manufacturer’s protocol, and the neomycin- resistant population (500 µg/mL) was selected. […]
HTS campaign and follow-up screens. […] After 3 days incubation, Alkaline Phosphatase activity (ALP) or AlamarBlue activity was measured using Amplite™ Colorimetric Alkaline Phosphatase Assay Kit (AAT Bioquest) or alamarBlue® Cell Viability Reagent (Thermo Fisher Scientific) according to the manufacturer’s protocol, respectively. […]
(§3) was measured on POWERSCAN4 (DS Pharma Biomedical) or EnVision® Multilabel Reader (PerkinElmer).
(§4) Inhibitory effects of the screened compounds are given as percent inhibition, which was calculated using the following equation: (1-([Abs of compound] - [Abs of Min])/([Abs of Max] - [Abs of Min]))× 100, where [Abs of Max] and [Abs of Min] are the mean Abs of DMSO control and 1 µM DMH-1, respectively. The Z’ factor, which is widely used as a measure of the assay quality of each plate, was calculated using the following equation: Z’ factor = 1 - 3 × ([SD of Max] + [SD of Min])/([Abs of Max] - [Abs of Min]) (SI Appendix, Fig.
The S/B (signal-to-background) ratio was calculated using the following equation: ([Abs of Max]/[Abs of Min]) (SI Appendix, Fig. S3B). […]

[2] = AlamarBlue viability assay in ATDC5/FOP-ACVR1; conditions: mouse, ATDC5 cells stably expressing FOP-ACVR1 (ATDC5/FOP-ACVR1)
Experimental: as §1, §2
(§5) FuGeneHD® (Promega) according to the manufacturer’s protocol, and the neomycin- resistant population (500 µg/mL) was selected. Further selection was performed by selecting a mCherry high positive population (< 5%) after six hours of Dox treatment, sorting it with fluorescent-activated cell sorting (FACS) using AriaII (BD) according to the manufacturer’s protocol, and designating it as ATDC5/WT-ACVR1 or ATDC5/FOP-ACVR1.
(§6) KW111 included PB, active transposable PB elements; TRE-mCMVP, Tetracycline Response Element and a minimal CMV promoter; rtTA, reverse tetracycline-controlled transactivator. PBaseII was an expression plasmid vector containing the PB transposase cDNA with optimized codon usage to human under the control […]
(§7) HTS campaign and follow-up screens. ATDC5/FOP-ACVR1 cells were plated in 96-well white plates (2,000 cells/well/40 µ L, Corning) in DMEM/F-12 supplemented with 5% (v/v) FBS. […]
(§8) 37 °C under 5% CO2. After 3 days incubation, Alkaline Phosphatase activity (ALP) or AlamarBlue activity was measured using Amplite™ Colorimetric Alkaline Phosphatase Assay Kit (AAT Bioquest) or alamarBlue® Cell Viability Reagent (Thermo Fisher Scientific) according to the manufacturer’s protocol, respectively. T h e […]
as §3, §4
(§9) The S/B (signal-to-background) ratio was calculated using the following equation: ([Abs of Max]/[Abs of Min]) (SI Appendix, Fig. S3B).
(§10) Using ATDC5/FOP-ACVR1 cells, we performed a first screening (n=2; test compounds = 1 µM, Fig. […]

ATDC5/FOP-ACVR1 cells [3] = assay: ALP assay (HTS and dose-response) in ATDC5/FOP-ACVR1; format: cell-based, mouse; conditions: same protocol as HTS (72 h)
ATDC5/FOP-ACVR1 cells [4] = assay: AlamarBlue viability assay in ATDC5/FOP-ACVR1; conditions: for Viability (%) @10 μM: AlamarBlue, ATDC5/FOP-ACVR1, 10 μM
Experimental: as §1, §2, §5, §6, §7, §8, §3, §4, §9, §10

BMP signaling (BRE-Luc) = assay: BRE-Luc reporter assay in FOP-iMSCs; format: cell-based, human; conditions: activin A and compounds for 16 hr
Experimental: (§11) FOP-iMSCs transiently transfected with BRE-Luc (A) or CAGA-Luc (B) with CMV-Renilla were stimulated with activin A and compounds for 16 hr (A) or 3 hr (B). […] One day after siRNA transfection, chondrogenic induction with activin A was initiated, and after 7 days the cells were harvested. […] FOP-iMSCs cultured with 10% FBS were treated with 100 nM rapamycin (Rapa) or TAK 165 (TAK) for 2 hr, and the cells were harvested. […] 1 μM TAK, 1 μM CP (CP-724714, another selective ERBB2 inhibitor), or 10 nM Rapa were applied in the experiments.

[5] = system: TGF-β signaling (CAGA-Luc); assay: CAGA-Luc reporter assay in FOP-iMSCs; format: cell-based, human; conditions: activin A and compounds for 3 hr
Experimental: as §11

mTOR signaling (p-S6) = assay: p-S6 western blotting during chondrogenic induction of FOP-iMSCs with activin A; format: cell-based, human; conditions: 1 µM
Experimental: Western blotting. SDS- PAGE and blotting with whole-cell lysates were performed by standard procedures.
Protein bands were detected with ECL Prime Western Blotting Detection Reagent (GE Healthcare) and visualized using BIO-RAD Molecular Imager® Chemi-DocTM XRS+ with Image LabTM software (Bio-Rad).
All data (relative intensity) were corrected by β-actin.
Antibodies for western blotting and immunostaining.
N ame Company Cat. No Concentration
Human Activin RIA/ALK-2 Antibody R&D Systems) AF637 1:100
Anti-human Vimentin antibody Abcam ab16700 1:40
Collagen I Antibody Novus NB600- 1:100
Anti-rabbit IgG, HRP-linked Antibody Cell Signaling #7074 1:10000 […]
2nd Goat anti-Rabbit IgG (H+L) Secondary Antibody, Invitrogen A-11008 1:100 antibody Alexa Fluor® 488 conjugate
Goat anti-Rabbit IgG (H+L) Secondary Antibody, Invitrogen A-21428 1:500

FOP-iMSCs [6] = assay: 2D chondrogenic induction of FOP-iMSCs with activin A (GAG, Alcian blue); format: cell-based, human; conditions: activin A, 7 days
FOP-iMSCs [7] = assay: Microarray / pathway analysis of activin A-induced chondrogenesis of FOP-iMSCs; format: cell-based, human; conditions: 100 nM, 100 ng/mL Activin-A, 7 days, microarray, N = 1
Experimental: Microarray experiments. 2D chondrogenic induction was performed in FOP-iMSCs stimulated with or without 100 ng/mL Activin-A, TAK 165, CP-724714 and Lapatinib. Seven days after incubation, mRNA was extracted. RNA was reverse transcribed, biotin-labeled and hybridized to GeneChip Human Gene 1.0 ST Expression Array, which was subsequently washed and scanned according to the manufacturer’s instructions (Affymetrix). Raw CEL files were imported into GeneSpring GX 12.6.1 software (Agilent Technologies), and expression values were calculated with the RMA16 algorithm. Pathway analysis was performed by Ingenuity pathway analysis (Qiagen). […]

IC50 (ATDC5/FOP-ACVR1 cells [3]): 0.021 µM
Compound: CC(C)Oc1ccc(-c2cnc3c(-c4ccnc5ccccc45)cnn3c2)cc1 [DMH-1]
ALP activity of ATDC5/FOP-ACVR1 (ATDC5/FOP-ACVR1 cells [1]; 72 hr after Dox and compound, without BMP stimulation): inhibited
viability (AlamarBlue) of ATDC5/FOP-ACVR1 (ATDC5/FOP-ACVR1 cells [4]; 72 hr after Dox and compound): not
Viability (%) @10 μM (ATDC5/FOP-ACVR1 cells [4]): 92%

IC50 (ATDC5/FOP-ACVR1 cells [3]; Mus musculus): 0.011 µM
Compound: CC(C)(C)Cn1c(N)nc2ccc(-c3[nH]c(C(C)(C)C)nc3-c3ccc(F)cc3)nc21 [LY2228820]
viability at 3 days, 10 µM [2]: 75%

Further lines, the compound ahead of its results:

Compound: C=C1/C(=C\C=C2/CCC[C@]3(C)[C@@H]([C@H](C)CCCC(C)(C)O)CC[C@@H]23)C[C@@H](O)C[C@@H]1O [Calcitriol]
IC50 (ATDC5/FOP-ACVR1 cells [1]; Mus musculus, 72 h, read-out: IC50 (ALP assay)): 0.0004 µM
viability at 3 days, 10 µM [2]: 81%

Compound: Nc1ncnc2c1c(-c1cccc(OCc3ccccc3)c1)cn2C1CC(CN2CCCC2)C1 (stereo not drawn) [NVP-ADW742]
IC50 (ATDC5/FOP-ACVR1 cells [3]): 6.57 µM
Viability (%) @10 μM (ATDC5/FOP-ACVR1 cells [4]): -1%

Compound: CCN(CC)CCCCNc1ncc2cc(-c3c(Cl)cccc3Cl)c(NC(=O)NC(C)(C)C)nc2n1 [PD 161570]
BRE-Luc (BMP-specific luciferase reporter) (BMP signaling (BRE-Luc)): inhibited
CAGA-Luc (TGF-β-responsive luciferase reporter) [5]: inhibited
p-S6 levels from 2 hr after treatment (mTOR signaling (p-S6)): significantly inhibited
IC50 (ATDC5/FOP-ACVR1 cells [3]): 0.317 µM
Viability (%) @10 μM (ATDC5/FOP-ACVR1 cells [4]): 63%
inhibition of glycosaminoglycan (GAG) production (FOP-iMSCs [6]; 1 μM): potent inhibition
suppression of chondrogenic induction (GAG), dose dependence (FOP-iMSCs [6]): dose-dependent

Compound: CCc1c2c(nc3ccc(O)cc13)-c1cc3c(c(=O)n1C2)COC(=O)[C@]3(O)CC [SN 38]
IC50 (ATDC5/FOP-ACVR1 cells [3]): 0.098 µM
Viability (%) @10 μM (ATDC5/FOP-ACVR1 cells [4]): 17%

Compound: CS(=O)(=O)CCNCc1ccc(-c2ccc3ncnc(Nc4ccc(OCc5cccc(F)c5)c(Cl)c4)c3c2)o1 [lapatinib]
ADAMTS5 expression ratio to the TAK 165-treated group (FOP-iMSCs [7]): 2.1
BMP4 expression ratio to the TAK 165-treated group (FOP-iMSCs [7]): 0.4
DKK1 expression ratio to the TAK 165-treated group (FOP-iMSCs [7]): 2.1
FOS expression ratio to the TAK 165-treated group (FOP-iMSCs [7]): 2.4
FRZB expression ratio to the TAK 165-treated group (FOP-iMSCs [7]): 3.0
FZD3 expression ratio to the TAK 165-treated group (FOP-iMSCs [7]): 0.4
ITGA3 expression ratio to the TAK 165-treated group (FOP-iMSCs [7]): 2.5
ITGB3 expression ratio to the TAK 165-treated group (FOP-iMSCs [7]): 3.6
MMP1 expression ratio to the TAK 165-treated group (FOP-iMSCs [7]): 3.0
MMP13 expression ratio to the TAK 165-treated group (FOP-iMSCs [7]): 6.9
PIK3R3 expression ratio to the TAK 165-treated group (FOP-iMSCs [7]): 2.1
SPP1 expression ratio to the TAK 165-treated group (FOP-iMSCs [7]): 3.7
TNFRSF11B expression ratio to the TAK 165-treated group (FOP-iMSCs [7]): 0.5
WIF1 expression ratio to the TAK 165-treated group (FOP-iMSCs [7]): 0.1
WNT16 expression ratio to the TAK 165-treated group (FOP-iMSCs [7]): 0.5
effect on GAG in the chondrogenesis of FOP-iMSCs (ERBB2 kinase inhibitors) (FOP-iMSCs [6]; 100 nM and 1 µM): no effect

Compound: pertuzumab: ERBB2-selective neutralizing antibody
effect on GAG in the chondrogenesis of FOP-iMSCs (ERBB2 neutralizing antibodies) (FOP-iMSCs [6]; 1 µg/mL): no effect
